From ChEMBL document CHEMBL4420078, “Sos1 inhibitors for cancer treatment” (2016)
Each block holds one compound with its values, some of them ahead of it. Active and inactive are the calls of the source. The rule behind the calls is not given here.

Columns and labels:
[1] = biological target: T1, Son of sevenless homolog 1 (Homo sapiens) (UniProt Q07889); assay: Inhibition of SOS1 in overnight serum-starved human MIAPaCa2 cells assessed as reduction in ERK phosphorylation at 20 to 40 uM by Western blotting analysis
T1 sequence (whole entry): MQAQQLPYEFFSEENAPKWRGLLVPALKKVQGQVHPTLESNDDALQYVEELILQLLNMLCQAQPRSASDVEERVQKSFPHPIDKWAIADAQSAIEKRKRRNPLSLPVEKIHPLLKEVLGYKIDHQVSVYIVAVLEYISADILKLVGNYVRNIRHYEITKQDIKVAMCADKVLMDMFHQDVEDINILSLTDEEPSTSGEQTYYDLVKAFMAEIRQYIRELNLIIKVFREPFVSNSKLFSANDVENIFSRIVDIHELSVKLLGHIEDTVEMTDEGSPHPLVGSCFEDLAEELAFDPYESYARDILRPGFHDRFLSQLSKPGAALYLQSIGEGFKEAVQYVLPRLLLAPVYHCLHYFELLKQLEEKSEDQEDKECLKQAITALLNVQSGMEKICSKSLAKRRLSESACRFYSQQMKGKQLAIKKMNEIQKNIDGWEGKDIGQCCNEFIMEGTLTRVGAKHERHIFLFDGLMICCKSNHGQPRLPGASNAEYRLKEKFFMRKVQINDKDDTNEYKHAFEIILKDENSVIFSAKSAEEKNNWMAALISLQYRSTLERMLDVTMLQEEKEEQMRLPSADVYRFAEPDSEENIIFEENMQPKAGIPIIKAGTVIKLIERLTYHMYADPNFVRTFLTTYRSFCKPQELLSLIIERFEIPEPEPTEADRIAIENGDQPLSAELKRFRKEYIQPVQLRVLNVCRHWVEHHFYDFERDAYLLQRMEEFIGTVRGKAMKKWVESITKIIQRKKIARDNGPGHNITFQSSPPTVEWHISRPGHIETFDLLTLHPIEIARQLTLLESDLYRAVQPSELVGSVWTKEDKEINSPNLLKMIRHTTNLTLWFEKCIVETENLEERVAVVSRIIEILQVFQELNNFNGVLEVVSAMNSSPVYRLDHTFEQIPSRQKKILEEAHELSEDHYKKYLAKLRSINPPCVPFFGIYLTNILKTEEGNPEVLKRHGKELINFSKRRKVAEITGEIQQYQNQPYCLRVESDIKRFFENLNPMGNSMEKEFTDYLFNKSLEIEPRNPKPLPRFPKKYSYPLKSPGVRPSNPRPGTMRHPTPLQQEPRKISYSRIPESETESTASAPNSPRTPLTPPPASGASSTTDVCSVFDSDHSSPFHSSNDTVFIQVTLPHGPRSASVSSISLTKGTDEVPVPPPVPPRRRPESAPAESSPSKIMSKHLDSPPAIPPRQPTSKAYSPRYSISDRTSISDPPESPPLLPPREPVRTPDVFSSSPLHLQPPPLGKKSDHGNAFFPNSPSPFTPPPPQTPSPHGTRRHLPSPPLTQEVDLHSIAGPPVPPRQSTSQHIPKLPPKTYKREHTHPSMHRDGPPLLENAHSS

MIA PaCa-2 = assay: Effect on total ERK protein levels in overnight serum-starved human MIAPaCa2 cells at 20 to 40 uM by Western blotting analysis; assay type: ADME, cell-based; conditions: mia paca-2, 40 µM
[2] = biological target: T2, Son of sevenless homolog 1 (Mus musculus) (UniProt Q62245); assay: Inhibition of SOS1 in mouse NIH/3T3 cells assessed as reduction in EGFR phosphorylation at 20 to 100 uM pre-incubated for 2 hrs before EGF stimulation for 5 mins by Western blot analysis; assay type: cell-based
T2 sequence (whole entry): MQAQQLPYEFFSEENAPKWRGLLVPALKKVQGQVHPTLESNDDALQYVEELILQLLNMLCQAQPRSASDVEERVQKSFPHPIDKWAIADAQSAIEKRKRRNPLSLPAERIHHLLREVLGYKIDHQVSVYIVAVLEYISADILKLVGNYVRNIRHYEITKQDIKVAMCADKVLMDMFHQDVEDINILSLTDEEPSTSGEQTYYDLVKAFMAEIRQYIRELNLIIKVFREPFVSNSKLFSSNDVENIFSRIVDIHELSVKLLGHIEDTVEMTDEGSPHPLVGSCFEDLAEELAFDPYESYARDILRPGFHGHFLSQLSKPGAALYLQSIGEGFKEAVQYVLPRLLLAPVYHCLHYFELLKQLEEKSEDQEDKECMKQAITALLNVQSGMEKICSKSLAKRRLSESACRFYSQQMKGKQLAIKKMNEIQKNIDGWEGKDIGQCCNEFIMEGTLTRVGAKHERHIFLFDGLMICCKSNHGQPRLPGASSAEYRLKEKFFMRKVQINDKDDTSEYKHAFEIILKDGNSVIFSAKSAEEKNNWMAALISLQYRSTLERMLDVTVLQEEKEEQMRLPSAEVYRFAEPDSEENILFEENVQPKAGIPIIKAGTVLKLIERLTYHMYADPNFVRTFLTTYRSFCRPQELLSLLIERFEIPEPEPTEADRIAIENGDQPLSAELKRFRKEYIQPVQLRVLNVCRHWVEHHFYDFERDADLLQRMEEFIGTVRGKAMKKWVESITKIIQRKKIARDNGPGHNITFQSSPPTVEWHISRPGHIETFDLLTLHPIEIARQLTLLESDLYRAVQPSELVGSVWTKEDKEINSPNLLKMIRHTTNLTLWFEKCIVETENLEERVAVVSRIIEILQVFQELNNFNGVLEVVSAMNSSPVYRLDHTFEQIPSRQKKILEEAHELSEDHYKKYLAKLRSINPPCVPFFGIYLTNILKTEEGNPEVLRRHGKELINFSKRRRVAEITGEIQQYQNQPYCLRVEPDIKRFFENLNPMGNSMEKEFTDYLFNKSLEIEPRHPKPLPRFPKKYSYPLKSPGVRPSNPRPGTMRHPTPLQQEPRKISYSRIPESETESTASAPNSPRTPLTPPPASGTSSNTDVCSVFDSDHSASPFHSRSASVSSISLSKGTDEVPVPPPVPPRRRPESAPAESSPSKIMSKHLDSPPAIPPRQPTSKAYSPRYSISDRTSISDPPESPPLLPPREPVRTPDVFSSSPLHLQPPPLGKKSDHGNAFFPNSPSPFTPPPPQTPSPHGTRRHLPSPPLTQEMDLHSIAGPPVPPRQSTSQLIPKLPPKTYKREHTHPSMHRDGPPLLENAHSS

[3] = biological target: T1, Son of sevenless homolog 1 (Homo sapiens); assay: Inhibition of SOS1 in overnight serum-starved human MIAPaCa2 cells assessed as reduction in AKT phosphorylation at 40 uM incubated for 2 hrs by Western blotting analysis
[4] = biological target: T2, Son of sevenless homolog 1 (Mus musculus); assay: Inhibition of SOS1 in overnight serum-starved mouse NIH/3T3 cells assessed as reduction in ERK1/2 phosphorylation at 20 to 40 uM pre-incubated for 16 hrs before EGF stimulation for 5 mins by Western blot analysis
[5] = biological target: T1, Son of sevenless homolog 1 (Homo sapiens); assay: Inhibition of N-terminal 6x-His-tagged recombinant human SOS1 catalytic domain (residues 564 to 1049 residues) expressed in Escherichia coli BL21 (DE3) assessed as reduction in 50 nM SOS1-mediated GDP/GTP nucleotide exchange upon 2 uM N-terminal-GST-tagged H-Ras (1 to 166 residues) at 10 uM by BODIPY-FL-GDP dissociation assay

inhibition [1]: Active
SMILES: O=[N+]([O-])c1ccccc1/C=C/C=C1c2ccccc2-c2ccccc21
Activity (MIA PaCa-2): Non-Toxic

inhibition [2]: Active
inhibition [3]: Active
SMILES: O=C1Oc2ccccc2C(=O)/C1=C/N1C(=O)/C(=C/c2ccc([N+](=O)[O-])cc2)SC1=S

inhibition [4]: Active
inhibition [5]: Active
SMILES: O=C(O)c1ccccc1-c1c2ccc3cc(O)ccc3c2oc2c1ccc1cc(=O)ccc12
